Our source for the AC50 values is ChEMBL document CHEMBL5291721, “A preclinical secondary pharmacology resource illuminates target-adverse drug reaction associations of marketed drugs” (Nat Commun, 2023).

Each structure is given as a SMILES string.

One assay deals with Histamine H3 receptor (Homo sapiens, UniProt Q9Y5N1).
Another assay deals with T1, Thromboxane A2 receptor (Homo sapiens, UniProt P21731).
T1 sequence (P21731 whole entry): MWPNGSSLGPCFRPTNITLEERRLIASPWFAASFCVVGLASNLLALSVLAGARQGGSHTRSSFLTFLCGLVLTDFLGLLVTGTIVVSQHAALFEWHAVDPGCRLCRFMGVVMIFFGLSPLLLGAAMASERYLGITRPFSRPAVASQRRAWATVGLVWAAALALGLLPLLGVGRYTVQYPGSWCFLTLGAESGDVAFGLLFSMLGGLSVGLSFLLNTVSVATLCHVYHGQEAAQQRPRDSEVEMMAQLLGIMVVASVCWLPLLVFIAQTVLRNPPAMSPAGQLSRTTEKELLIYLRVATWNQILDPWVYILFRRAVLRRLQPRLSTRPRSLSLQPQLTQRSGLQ

The next assay addresses T2, Adenosine receptor A3 (Homo sapiens, UniProt P0DMS8).
T2 sequence (P0DMS8 whole entry): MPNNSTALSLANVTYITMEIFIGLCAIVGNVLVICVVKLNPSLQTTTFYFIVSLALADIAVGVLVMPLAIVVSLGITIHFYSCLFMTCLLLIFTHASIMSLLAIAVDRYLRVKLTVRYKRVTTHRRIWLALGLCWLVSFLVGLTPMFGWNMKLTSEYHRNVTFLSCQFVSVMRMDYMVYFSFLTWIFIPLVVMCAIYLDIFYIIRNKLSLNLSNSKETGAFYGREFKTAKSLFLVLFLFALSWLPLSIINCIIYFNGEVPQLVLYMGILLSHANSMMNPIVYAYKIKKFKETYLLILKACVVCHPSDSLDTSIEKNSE

Assay [1] has as its target T3, Equilibrative nucleoside transporter 1 (Homo sapiens, UniProt Q99808).
T3 sequence (Q99808 whole entry): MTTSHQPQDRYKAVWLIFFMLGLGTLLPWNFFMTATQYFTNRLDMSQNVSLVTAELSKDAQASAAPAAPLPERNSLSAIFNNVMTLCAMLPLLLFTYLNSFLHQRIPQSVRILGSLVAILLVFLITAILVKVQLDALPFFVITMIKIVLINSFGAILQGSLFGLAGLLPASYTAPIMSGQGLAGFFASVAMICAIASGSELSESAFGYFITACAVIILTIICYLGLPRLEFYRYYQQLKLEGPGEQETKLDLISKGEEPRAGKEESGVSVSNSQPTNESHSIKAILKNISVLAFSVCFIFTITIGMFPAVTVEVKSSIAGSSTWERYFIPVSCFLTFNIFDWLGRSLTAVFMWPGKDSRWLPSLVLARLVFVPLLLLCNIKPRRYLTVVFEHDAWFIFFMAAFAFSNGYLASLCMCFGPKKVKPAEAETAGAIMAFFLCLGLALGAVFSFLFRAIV

Assay [2] addresses Sodium-dependent dopamine transporter (Homo sapiens, UniProt Q01959).
The target in assay [3] is Glutamate receptor ionotropic, NMDA 1 (Rattus norvegicus, UniProt P35439).
Assay [4] has as its target T4, Cholecystokinin receptor type A (Homo sapiens, UniProt P32238).
T4 sequence (P32238 whole entry): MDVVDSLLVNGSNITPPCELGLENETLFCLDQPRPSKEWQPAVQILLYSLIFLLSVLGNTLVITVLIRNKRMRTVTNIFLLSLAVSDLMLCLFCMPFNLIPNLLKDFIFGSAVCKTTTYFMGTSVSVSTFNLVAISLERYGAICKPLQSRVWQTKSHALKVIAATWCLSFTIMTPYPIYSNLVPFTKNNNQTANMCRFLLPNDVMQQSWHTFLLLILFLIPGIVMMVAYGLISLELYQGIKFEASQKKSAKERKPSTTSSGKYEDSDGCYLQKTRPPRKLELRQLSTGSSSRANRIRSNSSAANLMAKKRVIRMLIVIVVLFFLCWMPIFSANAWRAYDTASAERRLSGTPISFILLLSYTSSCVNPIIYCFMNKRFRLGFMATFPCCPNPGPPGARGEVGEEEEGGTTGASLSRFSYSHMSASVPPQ

Assay [5] addresses 3',5'-cyclic-AMP phosphodiesterase 4D (Homo sapiens, UniProt Q08499). Format: functional.
The target of assay [6] is T5, Muscarinic acetylcholine receptor M2 (Homo sapiens, UniProt P08172).
T5 sequence (P08172 whole entry): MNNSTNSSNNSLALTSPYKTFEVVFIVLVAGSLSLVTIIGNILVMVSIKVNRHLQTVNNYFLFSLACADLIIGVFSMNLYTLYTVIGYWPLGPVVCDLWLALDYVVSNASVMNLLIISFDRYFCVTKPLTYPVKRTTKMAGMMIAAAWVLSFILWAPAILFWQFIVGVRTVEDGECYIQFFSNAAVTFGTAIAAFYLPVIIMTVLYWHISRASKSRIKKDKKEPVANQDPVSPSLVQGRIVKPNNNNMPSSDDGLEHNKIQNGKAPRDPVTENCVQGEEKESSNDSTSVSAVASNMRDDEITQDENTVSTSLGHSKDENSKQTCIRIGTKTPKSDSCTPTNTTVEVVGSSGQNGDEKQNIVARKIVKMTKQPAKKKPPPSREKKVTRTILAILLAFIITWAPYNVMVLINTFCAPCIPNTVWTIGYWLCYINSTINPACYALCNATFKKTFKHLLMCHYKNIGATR
The format is functional, cell-based.

For a further assay, the target named is Histamine H2 receptor (Homo sapiens, UniProt P25021). The format is functional, cell-based.
For assay [7], the target named is T6, Alpha-2A adrenergic receptor (Homo sapiens, UniProt P08913).
T6 sequence (P08913 whole entry): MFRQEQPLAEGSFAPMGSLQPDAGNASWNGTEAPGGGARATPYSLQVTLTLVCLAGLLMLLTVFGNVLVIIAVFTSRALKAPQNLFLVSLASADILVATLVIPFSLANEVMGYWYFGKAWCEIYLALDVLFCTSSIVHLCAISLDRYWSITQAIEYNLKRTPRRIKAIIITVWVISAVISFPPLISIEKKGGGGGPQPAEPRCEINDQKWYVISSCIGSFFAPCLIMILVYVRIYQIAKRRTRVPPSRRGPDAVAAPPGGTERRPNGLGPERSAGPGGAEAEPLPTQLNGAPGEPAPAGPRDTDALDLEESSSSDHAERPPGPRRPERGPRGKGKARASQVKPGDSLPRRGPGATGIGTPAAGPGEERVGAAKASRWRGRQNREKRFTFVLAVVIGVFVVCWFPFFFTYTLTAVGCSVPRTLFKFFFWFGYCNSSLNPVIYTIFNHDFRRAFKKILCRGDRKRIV
The format is functional, cell-based.
Also: assay procedure not described here.

Sequence of Sodium-dependent dopamine transporter (Q01959 whole entry): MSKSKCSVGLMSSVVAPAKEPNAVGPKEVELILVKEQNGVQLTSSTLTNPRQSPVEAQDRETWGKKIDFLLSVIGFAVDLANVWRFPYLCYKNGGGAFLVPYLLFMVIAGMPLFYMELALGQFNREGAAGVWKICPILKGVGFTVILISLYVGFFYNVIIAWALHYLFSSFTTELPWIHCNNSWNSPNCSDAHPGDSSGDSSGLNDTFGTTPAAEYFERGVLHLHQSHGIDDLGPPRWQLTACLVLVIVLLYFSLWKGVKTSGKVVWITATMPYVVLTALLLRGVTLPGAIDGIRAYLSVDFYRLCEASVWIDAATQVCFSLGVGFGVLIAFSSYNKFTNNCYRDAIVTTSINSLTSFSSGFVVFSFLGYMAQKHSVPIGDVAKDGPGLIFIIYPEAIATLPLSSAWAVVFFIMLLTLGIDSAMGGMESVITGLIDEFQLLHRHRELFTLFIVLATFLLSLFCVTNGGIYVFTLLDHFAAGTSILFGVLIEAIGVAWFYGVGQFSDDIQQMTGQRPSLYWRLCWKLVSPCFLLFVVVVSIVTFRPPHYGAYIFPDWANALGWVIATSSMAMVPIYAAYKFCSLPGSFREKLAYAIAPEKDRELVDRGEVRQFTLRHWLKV
Sequence of Histamine H2 receptor (P25021 whole entry): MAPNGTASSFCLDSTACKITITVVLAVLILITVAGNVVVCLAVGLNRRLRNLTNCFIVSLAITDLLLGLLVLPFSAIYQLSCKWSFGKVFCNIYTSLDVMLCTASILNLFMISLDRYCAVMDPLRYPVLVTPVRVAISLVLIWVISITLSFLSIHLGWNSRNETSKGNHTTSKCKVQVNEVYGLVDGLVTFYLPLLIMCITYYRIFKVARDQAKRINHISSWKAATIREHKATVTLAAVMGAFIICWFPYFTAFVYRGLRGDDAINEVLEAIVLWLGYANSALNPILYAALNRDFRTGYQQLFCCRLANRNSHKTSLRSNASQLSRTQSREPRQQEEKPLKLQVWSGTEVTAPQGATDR
Sequence of Histamine H3 receptor (Q9Y5N1 whole entry): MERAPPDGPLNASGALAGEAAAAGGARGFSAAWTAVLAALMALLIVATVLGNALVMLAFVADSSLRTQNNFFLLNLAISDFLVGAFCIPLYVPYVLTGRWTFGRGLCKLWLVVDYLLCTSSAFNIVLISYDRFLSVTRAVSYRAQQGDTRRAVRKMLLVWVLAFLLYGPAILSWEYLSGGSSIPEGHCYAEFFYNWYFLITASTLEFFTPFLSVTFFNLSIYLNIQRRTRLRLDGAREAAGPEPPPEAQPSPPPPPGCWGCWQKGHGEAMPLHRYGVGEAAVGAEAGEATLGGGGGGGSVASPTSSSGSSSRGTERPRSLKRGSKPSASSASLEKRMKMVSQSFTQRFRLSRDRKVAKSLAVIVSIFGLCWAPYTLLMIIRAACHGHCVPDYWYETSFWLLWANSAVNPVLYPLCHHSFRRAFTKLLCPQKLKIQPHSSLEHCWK
Sequence of 3',5'-cyclic-AMP phosphodiesterase 4D (Q08499 whole entry): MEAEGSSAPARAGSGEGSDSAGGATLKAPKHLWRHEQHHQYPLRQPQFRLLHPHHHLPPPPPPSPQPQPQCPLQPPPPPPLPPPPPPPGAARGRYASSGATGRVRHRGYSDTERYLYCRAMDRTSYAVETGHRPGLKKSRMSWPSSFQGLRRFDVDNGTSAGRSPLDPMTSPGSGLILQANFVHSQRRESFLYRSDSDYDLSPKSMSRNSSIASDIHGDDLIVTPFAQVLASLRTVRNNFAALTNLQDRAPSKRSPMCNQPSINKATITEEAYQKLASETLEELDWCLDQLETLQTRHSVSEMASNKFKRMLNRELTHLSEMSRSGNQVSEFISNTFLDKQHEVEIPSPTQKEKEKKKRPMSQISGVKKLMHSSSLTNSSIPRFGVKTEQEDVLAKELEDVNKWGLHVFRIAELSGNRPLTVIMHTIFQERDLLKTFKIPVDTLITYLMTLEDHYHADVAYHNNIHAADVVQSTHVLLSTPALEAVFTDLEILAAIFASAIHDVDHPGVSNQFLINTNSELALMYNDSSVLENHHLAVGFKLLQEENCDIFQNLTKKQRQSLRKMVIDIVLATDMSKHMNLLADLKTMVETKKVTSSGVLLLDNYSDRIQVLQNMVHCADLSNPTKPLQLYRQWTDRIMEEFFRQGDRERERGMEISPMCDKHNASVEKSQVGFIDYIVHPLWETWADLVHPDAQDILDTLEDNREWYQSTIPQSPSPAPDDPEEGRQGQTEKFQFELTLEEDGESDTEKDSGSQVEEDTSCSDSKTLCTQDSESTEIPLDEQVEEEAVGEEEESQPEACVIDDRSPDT

As to `CCC[C@H](NC(=O)[C@@H]1[C@H]2CCC[C@H]2CN1C(=O)[C@@H](NC(=O)[C@@H](NC(=O)c1cnccn1)C1CCCCC1)C(C)(C)C)C(=O)C(=O)NC1CC1`, the AC50 on Histamine H3 receptor was > 10 µM; at Thromboxane A2 receptor, > 30 µM; on Adenosine receptor A3, > 30 µM; in assay [1], > 30 µM; in assay [2], > 10 µM; in [3], > 10 µM. The AC50 in [4] and in [5] was > 30 µM throughout.

With `C/N=C(\NC)NCc1ccccc1` [BETHANIDINE], the concentration at half-maximal activity (AC50) (in assay [6]; at Histamine H3 receptor; at Adenosine receptor A3; in assay [1]; in assay [2]; in assay [3]) was > 30 µM throughout. The AC50 (in [4]; on Histamine H2 receptor; in assay [7]; in [5]) was > 30 µM throughout.

`CCC(C)C1(CC)C(=O)NC(=O)NC1=O` (stereo not drawn) [BUTABARBITAL]: the AC50 (in assay [6]; at Histamine H3 receptor; at Adenosine receptor A3; in [1]; in [2]; in [4]) was > 30 µM each time. For the same compound, the AC50 (on Histamine H2 receptor; in assay [7]; in [5]) was > 30 µM throughout.

In the case of `C[C@]12CC[C@@H]3c4ccc(O)cc4C[C@@H](CCCCCCCCC[S+]([O-])CCCC(F)(F)C(F)(F)F)[C@H]3[C@@H]1CC[C@@H]2O` (stereo partly drawn) [FULVESTRANT], the AC50 (in assay [6]; on Histamine H3 receptor; at Adenosine receptor A3; in [1]; in assay [2]; in assay [3]) was > 30 µM each time. Moreover, the AC50 (in [4]; at Histamine H2 receptor; in [7]; in assay [5]) was > 30 µM in each case.

For the compound `Cc1cnc(C(=O)NCCc2ccc(S(=O)(=O)NC(=O)NC3CCCCC3)cc2)cn1` [GLIPIZIDE], the AC50 at Histamine H3 receptor was > 10 µM; on Thromboxane A2 receptor, > 30 µM; at Adenosine receptor A3, > 30 µM; in assay [1], > 30 µM; in [3] it was > 10 µM; in [4], > 30 µM. Besides, the concentration at half-maximal activity (AC50) at Histamine H2 receptor is > 10 µM; in assay [7], > 10 µM; in assay [5], > 30 µM.

As to `CC(C)NCC(O)c1ccc(O)c(O)c1` (stereo not drawn) [ISOPROTERENOL], the AC50 is > 10 µM in assay [6]; > 10 µM at Histamine H3 receptor; > 30 µM on Thromboxane A2 receptor; 20.3 µM at Adenosine receptor A3; > 30 µM in assay [1]; > 30 µM in assay [2]. Also, the AC50 in assay [3] was > 10 µM; in [4], > 30 µM; on Histamine H2 receptor it was > 10 µM; in [5], > 30 µM.

With `CN1CCN(C2=Nc3ccccc3Oc3ccc(Cl)cc32)CC1` [LOXAPINE], the AC50 at Histamine H3 receptor is > 10 µM; at Thromboxane A2 receptor it was > 30 µM; at Adenosine receptor A3, > 30 µM; in [1] it was > 30 µM; in assay [2], > 10 µM; in assay [3], > 10 µM. Besides, the AC50 is > 30 µM in assay [4] and > 10 µM at Histamine H2 receptor.

Regarding `CC12CC3CC(C)(C1)CC(N)(C3)C2` [MEMANTINE], the AC50 in [6] is > 10 µM; at Histamine H3 receptor, > 10 µM; on Thromboxane A2 receptor, > 30 µM; on Adenosine receptor A3, > 30 µM; in [1], > 30 µM; in assay [2] it was > 30 µM. Besides, the AC50 in assay [4] is > 30 µM; at Histamine H2 receptor, > 10 µM; in assay [7], > 10 µM; in assay [5] it was > 30 µM.

Consider `CN(C)CCCNc1c2ccccc2nc2cccc([N+](=O)[O-])c12` [NITRACRINE], for which the AC50 is > 30 µM in assay [6]; > 10 µM at Histamine H3 receptor; > 30 µM at Thromboxane A2 receptor; > 30 µM at Adenosine receptor A3; > 30 µM in assay [2]; > 30 µM in [3]. Also, the AC50 is > 30 µM in assay [4], > 30 µM in [7] and 21 µM in [5].

In the case of `CCCN[C@H]1CCc2nc(N)sc2C1` [PRAMIPEXOLE], the AC50 is > 10 µM in assay [6]; > 10 µM on Histamine H3 receptor; > 30 µM at Thromboxane A2 receptor; > 30 µM at Adenosine receptor A3; > 30 µM in assay [1]; > 30 µM in assay [2]. The AC50 in assay [3] is > 10 µM; in assay [4], > 30 µM; at Histamine H2 receptor, 0.73 µM; in assay [5], > 30 µM.

With `Cc1cccc(N2CC(CO)OC2=O)c1` (stereo not drawn) [TOLOXATONE], the AC50 (in [6]; at Histamine H3 receptor; at Thromboxane A2 receptor; on Adenosine receptor A3; in assay [2]; in [3]) was > 30 µM in each case. In addition, the AC50 (in assay [4]; on Histamine H2 receptor; in assay [7]; in assay [5]) was > 30 µM in each case.

Consider `CCC(C)C(CC)C(N)=O` (stereo not drawn) [VALNOCTAMIDE], for which the AC50 (in [6]; on Histamine H3 receptor; on Thromboxane A2 receptor; at Adenosine receptor A3; in [2]; in assay [3]) was > 30 µM in each case. In addition, the AC50 (in assay [4]; at Histamine H2 receptor; in [7]; in assay [5]) was > 30 µM in each case.

Turning to `Cc1cc(C(C)(C)C)cc(C)c1CC1=NCCN1` [XYLOMETAZOLINE], the AC50 in assay [6] was > 30 µM; at Histamine H3 receptor it was 6.9 µM; on Thromboxane A2 receptor, > 30 µM; at Adenosine receptor A3 it was > 30 µM; in assay [2], > 30 µM; in assay [3], > 30 µM. Also, the concentration at half-maximal activity (AC50) was > 30 µM in assay [4], > 30 µM at Histamine H2 receptor, 0.0616 µM in assay [7] and > 30 µM in assay [5].
